Test results as given in ChEMBL document CHEMBL4184144, “Design, synthesis and biological evaluation of fucose-truncated monosaccharide analogues of ipomoeassin F” (Bioorg Med Chem Lett, 2017).
Activity calls are given as the source filed them. The rule behind the calls is not given here.

Experiments:
Format in all cases: functional, cell-based
MCF7 [1] = test: Antiproliferative activity against human MCF7 cells after 72 hrs by MTT assay; conditions: MCF7, 72 h
MDA-MB-231 [2] = test: Antiproliferative activity against human MDA-MB-231 cells after 72 hrs by alamarBlue assay; conditions: MDA-MB-231, 72 h
HeLa = test: Antiproliferative activity against human HeLa cells
U-937 = test: Antiproliferative activity against human U937 cells
Jurkat = test: Antiproliferative activity against human Jurkat cells
MCF7 [3] = test: Antiproliferative activity against human MCF7 cells at 10 uM after 72 hrs by MTT assay
MDA-MB-231 [4] = test: Antiproliferative activity against human MDA-MB-231 cells at 10 uM after 72 hrs by alamarBlue assay

| Structure (SMILES) | IC50 (MCF7 [1]) [nM] | IC50 (MDA-MB-231 [2]) [nM] | IC50 (HeLa) [nM] | IC50 (U-937) [nM] | IC50 (Jurkat) [nM] | Activity (MCF7 [3]) | Activity (MDA-MB-231 [4]) |
| --- | --- | --- | --- | --- | --- | --- | --- |
| C/C=C(\C)C(=O)O[C@@H]1[C@@H](O)[C@@H]2O[C@H]3[C@H](O[C@@H](CCCCC)CCCCCCC(=O)CCC(=O)OC[C@@H](O2)[C@H]1OC(=O)/C=C/c1ccccc1)O[C@H](C)[C@H](O)[C@@H]3O | 86.7 | 131 | 133 | 72.5 | 139 |  |  |
| C/C=C(\C)C(=O)O[C@@H]1[C@@H](O)[C@@H]2O[C@H]3[C@H](O[C@@H](CCCCC)CCCCCCC(=O)CCC(=O)OC[C@@H](O2)[C@H]1OC(=O)/C=C/c1ccccc1)O[C@H](C)[C@H](OC(C)=O)[C@@H]3OC(C)=O | 216 | 16.5 | 138 | 79.8 | 82.6 |  |  |
| C/C=C(\C)C(=O)O[C@H]1[C@@H]2O[C@@H](CCCCC)CCCCCCC(=O)CCC(=O)OC[C@@H](O2)[C@@H](O)[C@@H]1OC(=O)/C=C/c1ccccc1 |  |  |  |  |  | inactive | inactive |
| C/C=C(\C)C(=O)O[C@@H]1[C@@H](O)[C@@H]2O[C@@H](CCCCC)CCCCCCC(=O)CCC(=O)OC[C@@H](O2)[C@H]1OC(=O)/C=C/c1ccccc1 |  |  |  |  |  | inactive | inactive |
| C/C=C(\C)C(=O)O[C@@H]1[C@@H](O)[C@@H]2O[C@H]3[C@H](O[C@@H](CCCCC)CCCCCCC(=O)CCC(=O)OC[C@@H](O2)[C@H]1OC(=O)/C=C/c1ccccc1)O[C@H](C)[C@H](OC(C)=O)[C@@H]3O | 43.7 | 6.5 | 16.4 | 5.4 | 6.1 | Active | Active |
| C/C=C(\C)C(=O)O[C@@H]1[C@@H](O)[C@@H]2OCCO[C@@H](CCCCC)CCCCCCC(=O)CCC(=O)OC[C@@H](O2)[C@H]1OC(=O)/C=C/c1ccccc1 |  |  |  |  |  | inactive | inactive |
